From patent US20230053540A1, “TREATMENT OF LIVER INJURY” (Massachusetts Institute of Technology, priority 2019, published 2023)

Tested on: hepatocytes
Experiment: Seq-Well scRNA-Seq of hepatocytes after APAP overdose (signature scores, DEG vs untreated)
Assay type: in vivo, mouse
Details: A6 vs UT

CC(=O)Nc1ccc(O)cc1 [APAP, acetaminophen]
Ash11 A6logFC: 0.2657 | Asl avg_logFC: 0.5586 | Atf4 A6logFC: 0.3411 | Atf6 A6logFC: 0.3778 | Atox1 avg_logFC: −0.4462 | Atox1 pct.1: 0.382 | Atp1a1 avg_logFC: 0.4191 | Atp1a1 pct.1: 0.53 | Atp1b1 A6logFC: 0.3702 | Atp2a2 avg_logFC: 0.495 | Atp2b1 A6logFC: 0.3321 | Atp5e avg_logFC: −0.6502 | Atp5f1 avg_logFC: −0.5171 | Atp5f1 pct.1: 0.69 | Atp5j2 avg_logFC: −0.5131 | Atp5j2 pct.1: 0.606 | Atp5k avg_logFC: −0.4773 | Atp5k pct.1: 0.368 | Atp13a3 avg_logFC: 0.3945 | Atp13a3 pct.1: 0.532 | Atp5h avg_logFC: −0.6398 | B2m avg_logFC: −0.3304 | B2m pct.1: 0.871 | B4galt5 avg_logFC: 0.4763 | BC005537 A6logFC: 0.3543 | Bach1 avg_logFC: 0.8323 | Bbox1 avg_logFC: −0.4082 | Bbox1 pct.1: 0.308 | Bc1af1 A6logFC: 0.2685 | Bcl2l1 avg_logFC: 0.7751 | Bcl3 avg_logFC: 0.289 | Bcl3 pct.1: 0.277 | Bclaf1 avg_logFC: 0.2685 | Bclaf1 pct.1: 0.372 | Bdh1 avg_logFC: −0.2936 | Bdh1 pct.1: 0.315 | Bdhl A6logFC: −0.2936 | Bet1 A6logFC: −0.2966 | Birc6 A6logFC: 0.3444 | Birc6 avg_logFC: 0.3444 | Birc6 pct.1: 0.446 | Blvrb avg_logFC: −0.5451 | Blvrb pct.1: 0.286 | Bphl avg_logFC: −0.4075 | Bphl pct.1: 0.339 | Brd2 A6logFC: 0.5715 | Brd2 avg_logFC: 0.5715 | Brd2 pct.1: 0.542 | Bst2 A6logFC: −0.3156 | Btaf1 A6logFC: 0.2755 | Btaf1 avg_logFC: 0.2755 | Btaf1 pct.1: 0.284 | Btg1 avg_logFC: 0.458 | Btg1 pct.1: 0.356 | Btg2 avg_logFC: 0.8321 | Bzw1 avg_logFC: 0.2948 | Bzw1 pct.1: 0.475 | C1qa avg_logFC: 0.5148 | C1qa pct.1: 0.174 | C1qc avg_logFC: 0.5861 | C1qc pct.1: 0.172 | C8g avg_logFC: −0.6545 | C1d A6logFC: −0.2553 | C1d avg_logFC: −0.2553 | C1d pct.1: 0.208 | C230081A13Rik avg_logFC: 0.427 | Cald1 avg_logFC: 0.3737 | Cald1 pct.1: 0.766 | Cap1 A6logFC: 0.3251 | Cap1 avg_logFC: 0.3251 | Cap1 pct.1: 0.356 | Car3 avg_logFC: −1.036 | Car5a A6logFC: −0.3088 | Cbr1 avg_logFC: 0.2847 | Cbr1 pct.1: 0.494 | Ccbl1 avg_logFC: −0.3649 | Ccbl1 pct.1: 0.205 | Ccdc50 A6logFC: 0.2858 | Ccdc50 avg_logFC: 0.2858 | Ccdc50 pct.1: 0.401 | Ccl6 avg_logFC: 0.7891 | Ccnl1 A6logFC: 0.2566 | Ccnl1 avg_logFC: 0.2566 | Ccnl1 pct.1: 0.351 | Ccs avg_logFC: −0.4267 | Ccs pct.1: 0.42 | Cd5l avg_logFC: 0.6935 | Cd14 avg_logFC: 0.3621 | Cd44 avg_logFC: 0.3037 | Cd44 pct.1: 0.115 | Cd53 avg_logFC: 0.2656 | Cd53 pct.1: 0.103 | Cd74 avg_logFC: 0.4539 | Cd74 pct.1: 0.155 | Cd97 avg_logFC: 0.3458 | Cd97 pct.1: 0.115 | Cd163 avg_logFC: 0.4408 | Cd163 pct.1: 0.146 | Cd302 avg_logFC: −0.5499 | Cdh1 A6logFC: 0.2697 | Cdh1 avg_logFC: 0.2697 | Cdh1 pct.1: 0.327 | Cdkn1a avg_logFC: 1.215 | Cebpa avg_logFC: −0.3916 | Cebpa pct.1: 0.442 | Cela1 A6logFC: −0.2723 | Cep85 A6logFC: 0.2839 | Cep85 avg_logFC: 0.2839 | Cep85 pct.1: 0.313 | Cers6 avg_logFC: 0.5328 | Ces3a avg_logFC: −0.5253 | Ces3b avg_logFC: −0.3664 | Ces3b pct.1: 0.57 | Cfhr1 A6logFC: −0.3253 | Cfp avg_logFC: 0.3562 | Cfp pct.1: 0.143 | Chac2 avg_logFC: −0.2865 | Chac2 pct.1: 0.057 | Chchd1 avg_logFC: −0.4398 | Chchd1 pct.1: 0.21 | Chchd2 avg_logFC: −0.5525 | Chchd10 avg_logFC: −0.4019 | Chchd10 pct.1: 0.802 | Chd1 avg_logFC: 0.3788 | Chd1 pct.1: 0.377 | Chic2 avg_logFC: 0.4198 | Chic2 pct.1: 0.37 | Chka avg_logFC: 1.375 | Chmp4b A6logFC: 0.3002 | Chuk A6logFC: 0.3724 | Cidec avg_logFC: 0.2994 | Cldn2 A6logFC: −0.2511 | Cldn14 avg_logFC: 0.3645 | Cldn14 pct.1: 0.32 | Clec4f avg_logFC: 1.108 | Clec4d avg_logFC: 0.2636 | Clec4d pct.1: 0.107 | Clic4 A6logFC: 0.2998 | Clic4 avg_logFC: 0.2998 | Clic4 pct.1: 0.368 | Clqb avg_logFC: 0.6817 | Cltc avg_logFC: 0.785 | Cmbl avg_logFC: −0.4427 | Cmbl pct.1: 0.415 | Cml1 avg_logFC: −0.6142 | Coa6 avg_logFC: −0.4114 | Coa6 pct.1: 0.15 | Coasy A6logFC: −0.2534 | Coasy avg_logFC: −0.2534 | Coasy pct.1: 0.327 | Commd3 A6logFC: −0.2656 | Commd3 avg_logFC: −0.2656 | Commd3 pct.1: 0.274 | Commd6 avg_logFC: −0.3645 | Commd6 pct.1: 0.172 | Cox4i1 avg_logFC: −0.516 | Cox5b avg_logFC: −0.4988 | Cox5b pct.1: 0.425 | Cox6a1 avg_logFC: −0.4872 | Cox6a1 pct.1: 0.675 | Cox6c avg_logFC: −0.8443 | Cox7a2 avg_logFC: −0.6503 | Cox7b avg_logFC: −0.6422 | Cp avg_logFC: 0.2541 | Cp pct.1: 0.89 | Creb3l2 avg_logFC: 0.4272 | Crp avg_logFC: −0.5069 | Crp pct.1: 0.477 | Csad avg_logFC: −0.5598 | Csad pct.1: 0.473 | Csrp3 A6logFC: −0.294 | Ctnnd1 A6logFC: 0.2518 | Ctnnd1 avg_logFC: 0.2518 | Ctnnd1 pct.1: 0.358 | Ctsb A6logFC: 0.5213 | Ctsb avg_logFC: 0.5213 | Ctsb pct.1: 0.804 | Ctsc A6logFC: 0.361 | Ctsl avg_logFC: 0.5301 | Ctss avg_logFC: 0.7642 | Cu11 A6logFC: 0.2592 | Cu13 A6logFC: 0.2788 | Cul1 avg_logFC: 0.2592 | Cul1 pct.1: 0.425 | Cul3 avg_logFC: 0.2788 | Cul3 pct.1: 0.415 | Cxadr avg_logFC: 0.6985 | Cxcl12 avg_logFC: −0.3058 | Cxcl12 pct.1: 0.251 | Cyb5 avg_logFC: −0.7102 | Cybb A6logFC: 0.3778 | Cyp4a10 avg_logFC: 0.4566 | Cyp4a10 pct.1: 0.687 | Cyp4a14 avg_logFC: 1.122 | Cyp4f15 A6logFC: −0.2998 | D10Wsu102e avg_logFC: 0.5878 | Dbi avg_logFC: −0.7164 | Dcaf11 avg_logFC: −0.2817 | Dcaf11 pct.1: 0.446 | Dcxr avg_logFC: −0.4409 | Dcxr pct.1: 0.37 | Ddah1 A6logFC: −0.312
